Tested on: C. glabrata gene expression
Experiment: RNA sequencing (gene regulation)
Type: cell-based, Candida glabrata
Settings: for Log2 Fold-Change: vs DMSO
Protocol: Cells from overnight precultures in YPD medium were reinoculated in fresh YNB −iron medium (see “Culture maintenance” for contents) without iron and grown until OD600 of 0.4. […] Cells were collected from three independent experiments, snap frozen, and stored at −80°C. Total RNA purification was performed as previously described using the RNeasy Mini Kit (74104, Qiagen), and gDNA removal was made using the RNase-Free DNase Set kit (79254, Qiagen). RNA quantification and quality control were done with a Tape Station 4150 (Agilent) ([59]).
Library preparation and sequencing were performed at GenomEast (IGBMC, Illkirch, France). One DMSO 0.05% sample was excluded from the analysis due to insufficient quality. The library was sequenced on Illumina Hiseq 4000 sequencer as single-read 50-base reads following Illumina’s instructions. Reads were pre-processed in order to remove adapter, polyA, and low-quality sequences (Phred quality score below 20). Reads shorter than 40 bases were discarded from further analysis. These pre-processing steps were performed using cutadapt version 1.10 ([60]). Image analysis and base calling were performed using RTA 2.7.7 and bcl2fastq2.17.1.14. Adapter dimer reads were removed using DimerRemover (https://sourceforge.net/projects/dimerremover/). The quality of the RNAseq reads was examined using FastQC 0.11.2 (http://www.bioinformatics.babraham.ac.uk/projects/fastqc/) and FastQScreen 0.5.1 (https://www.bioinformatics.babraham.ac.uk/projects/fastq_screen/). Reads were mapped onto the ASM254v2 assembly of Candida glabrata genome using STAR version 2.5.3a ([61]). Gene expression quantification was performed from uniquely aligned reads using htseq-count version 0.6.1p1 ([62]), with annotations from Ensembl fungi version 50 and union mode. Only non-ambiguously assigned reads have been retained for further analyses. Read counts were normalized across samples with the median-of-ratios method ([63]). Comparisons were implemented in the Bioconductor package DESeq2 version 1.16.1 using the test for differential expression ([64]). Genes with no P-value corresponded to genes with high Cook’s distance that were filtered out. P-values were adjusted for multiple testing using the Benjamini and Hochberg method ([65]). Genes with no adjusted P-value correspond to genes filtered out in the independent filtering step in order to remove reads from genes that have no or little chance of showing evidence of significant differential expression.

SMILES: c1ccc(-c2cccc(-c3ccccn3)n2)nc1 [2,2′:6′,2′′-terpyridine]
- genes significantly downregulated (10 µM, 1 h): 220 genes
- genes significantly upregulated (10 µM, 1 h): 224 genes
- Log2 Fold-Change (ALD5 CAGL0J03212g): 0.7544
- Log2 Fold-Change (AP5 CAGL0K08756g): 0.9964
- Log2 Fold-Change (APE1 CAGL0K08536g): 0.6939
- transcriptional response (C. glabrata and S. cerevisiae): strong iron starvation response
- Log2 Fold-Change (CAGL0A03674g): 0.5588
- Log2 Fold-Change (CAGL0B00484g): 0.7628
- Log2 Fold-Change (CAGL0B00792g): 1.214
- Log2 Fold-Change (CAGL0B00880g): 0.7009
- Log2 Fold-Change (CAGL0B01485g): 0.6219
- Log2 Fold-Change (CAGL0B02343g): 1.023
- Log2 Fold-Change (CAGL0H06963g): 0.7275
- Log2 Fold-Change (CAGL0H06985g): 0.7901
- Log2 Fold-Change (CAGL0H07205g): 0.5522
- Log2 Fold-Change (CAGL0H08393g): 1.535
- Log2 Fold-Change (CAGL0H09966g): 1.521
- Log2 Fold-Change (CAGL0I00264g): 0.9978
- Log2 Fold-Change (CAGL0I02354g): 0.6425
- Log2 Fold-Change (CAGL0I02376g): 0.6418
- Log2 Fold-Change (CAGL0I02398g): 0.5822
- Log2 Fold-Change (CAGL0I02508g): 0.5529
- Log2 Fold-Change (CAGL0I02684g): 0.5135
- Log2 Fold-Change (CAGL0I03344g): 0.7316
- Log2 Fold-Change (CAGL0I03608g): 0.7862
- Log2 Fold-Change (CAGL0I03630g): 0.6284
- Log2 Fold-Change (CAGL0I04290g): 0.6237
- Log2 Fold-Change (CAGL0I05060g): 0.5728
- Log2 Fold-Change (CAGL0I05654g): 0.7141
- Log2 Fold-Change (CAGL0I09350g): 0.5587
- Log2 Fold-Change (CAGL0I09702g): 0.5611
- Log2 Fold-Change (CAGL0I10670g): 0.9553
- Log2 Fold-Change (CAGL0J00451g): 2.136
- Log2 Fold-Change (CAGL0J00473g): 0.7426
- Log2 Fold-Change (CAGL0J01023g): 1.022
- Log2 Fold-Change (CAGL0J01045g): 0.9433
- Log2 Fold-Change (CAGL0J02376g): 0.7958
- Log2 Fold-Change (CAGL0J03718g): 0.5395
- Log2 Fold-Change (CAGL0J05412g): 0.5243
- Log2 Fold-Change (CAGL0J07568g): 0.7185
- Log2 Fold-Change (CAGL0J07980g): 0.7919
- Log2 Fold-Change (CAGL0J08250g): 0.5358
- Log2 Fold-Change (CAGL0J08910g): 0.5502
- Log2 Fold-Change (CAGL0J09196g): 0.506
- Log2 Fold-Change (CAGL0J09460g): 0.6815
- Log2 Fold-Change (CAGL0J10032g): 0.7428
- Log2 Fold-Change (CAGL0J10252g): 0.8692
- Log2 Fold-Change (CAGL0J10912g): 0.7791
- Log2 Fold-Change (CAGL0J11066g): 0.8417
- Log2 Fold-Change (CAGL0J11088g): 0.5227
- Log2 Fold-Change (CAGL0J11242g): 0.9997
- Log2 Fold-Change (CAGL0J11286g): 0.9034
- Log2 Fold-Change (CAGL0K02211g): 0.9809
- Log2 Fold-Change (CAGL0K02387g): 0.933
- Log2 Fold-Change (CAGL0K02431g): 0.8737
- Log2 Fold-Change (CAGL0K03861g): 0.5943
- Log2 Fold-Change (CAGL0K05049g): 0.5707
- Log2 Fold-Change (CAGL0K05555g): 0.5483
- Log2 Fold-Change (CAGL0K06215g): 1.181
- Log2 Fold-Change (CAGL0K07007g): 1.24
- Log2 Fold-Change (CAGL0K07898g): 0.62
- Log2 Fold-Change (CAGL0K08272g): 0.5171
- Log2 Fold-Change (CAGL0K08360g): 0.5636
- Log2 Fold-Change (CAGL0K09284g): 1.197
- Log2 Fold-Change (CAGL0K09372g): 0.5402
- Log2 Fold-Change (CAGL0K09614g): 0.8683
- Log2 Fold-Change (CAGL0K09922g): 0.6435
- Log2 Fold-Change (CAGL0L00583g): 0.7346
- Log2 Fold-Change (CAGL0L02739g): 0.6875
- Log2 Fold-Change (CAGL0L02871g): 0.8194
- Log2 Fold-Change (CAGL0L03047g): 0.9793
- Log2 Fold-Change (CAGL0L03696g): 0.5808
- Log2 Fold-Change (CAGL0L04092g): 0.5318
- Log2 Fold-Change (CAGL0L04114g): 0.5841
- Log2 Fold-Change (CAGL0L04950g): 0.896
- Log2 Fold-Change (CAGL0L05170g): 0.8533
- Log2 Fold-Change (CAGL0L05258g): 1.271
- Log2 Fold-Change (CAGL0L05500g): 0.7913
- Log2 Fold-Change (CAGL0L05566g): 0.7478
- Log2 Fold-Change (CAGL0L05786g): 1.136
- Log2 Fold-Change (CAGL0L06468g): 0.5199
- Log2 Fold-Change (CAGL0L06754g): 0.7195
- Log2 Fold-Change (CAGL0L07678g): 0.9514
- Log2 Fold-Change (CAGL0L07832g): 0.9435
- Log2 Fold-Change (CAGL0L08096g): 0.673
- Log2 Fold-Change (CAGL0L08206g): 0.6805
- Log2 Fold-Change (CAGL0L08756g): 0.7529
- Log2 Fold-Change (CAGL0L08976g): 0.7934
- Log2 Fold-Change (CAGL0L10846g): 0.7927
- Log2 Fold-Change (CDC21 CAGL0K05467g): 0.5322
- Log2 Fold-Change (FTR1 CAGL0I06743g): 1.014
- Log2 Fold-Change (GAT1 CAGL0K07634g): 0.7416
- Log2 Fold-Change (HBN1 CAGL0B00990g): 1.565
- Log2 Fold-Change (HMX1 CAGL0A03905g): 1.923
- Log2 Fold-Change (KNH1 CAGL0H07997g): 0.5109
- Log2 Fold-Change (NOP8 CAGL0B01397g): 0.7894
- Log2 Fold-Change (PDR16 CAGL0J07436g): 0.9143
- Log2 Fold-Change (SNQ2 CAGL0I04862g): 0.5824
- Log2 Fold-Change (SUT1 CAGL0I04246g): 0.7641
- Log2 Fold-Change (SUT2 CAGL0L09383g): 0.6785
- Log2 Fold-Change (TRR1 CAGL0I01166g): 1.667
